Data taken from patent US20230201267A1, “RETINAL PIGMENTED EPITHELIUM AND PHOTORECEPTOR DUAL CELL AGGREGATES AND METHODS OF USE THEREOF” (FUJIFILM Cellular Dynamics, Inc., priority 2020, published 2023).

Tests used:
[1] = system: RPE and PRP dual cell aggregates; test: Dual cell aggregate formation in thaw medium with or without Y-27632 (phase contrast); format: cell-based, human; conditions: Y-27632 in thaw medium (RPE-MM), 1 RPE:8 PRP, compared with thaw without Y-27632
Protocol: (§1) To characterize a dual cell aggregate culture, RPE were thawed in RPE-MM and PRP were thawed in RMN. If PRP were thawed as aggregates, either all aggregates or a sample of aggregates were TrypLE dissociated. Both cell types were counted using a ViCELL XR. RPE and PRP were combined at a desired cell ratio and cell number in RPE-MM and placed in a ULA T-75 flask on a belly dancer at 16-18 RPM to permit aggregate formation. Alternately, aggregates could be formed in a PBS mini vessel. To test in vivo function, some aggregates were transplanted into the subretinal space of a rat retina two days after aggregate formation. Surgery was performed to analyze the retinas. Aggregates or rat retinas were cryosectioned and analyzed by immunocytochemistry.
Dual cell aggregate formation without Y-27632 in thaw medium: As a first attempt to co-culture RPE and PRP as aggregates, RPE and PRP were thawed as single cells at a ratio of 1 RPE:3 PRP. Phase contrast images were captured at various time points (FIG. 1). […] However, after 21 and 69 days, aggregates had formed and appeared to be fairly regular, though skewed to a high RPE ratio, relative to PRP. Based on this experiment, all future experiments used the ROCK inhibitor Y-27632 when thawing RPE and maintained a lower RPE:PRP ratio. […]

[2] = system: RPE and PRP dual cell aggregates; test: Effect of PGE-2 on long-term dual cell aggregate culture (immunocytochemistry); format: cell-based, human; conditions: with vs without PGE2
Protocol: as §1
Effect of PGE-2 on long-term dual cell aggregate culture: During RPE culture, Prostaglandin E2 (PGE-2) is added to the culture medium from day 54 to day 68 of differentiation. PGE-2 is a hormone that stimulates RPE primary cilia formation and polarization, and its effect was tested on the dual cell aggregates (FIGS. 3-5). With this formulation of RPE and PRP, RPE generally appeared to form a majority of the aggregate, even after one month of culture. PRP did appear to mature after two months, indicated by the presence of PRPH2, an outer segment marker.

Structure (SMILES) | aggregate formation efficiency [1] | PRP organization in dual cell aggregates ([2]; one month after aggregate formation, initial ratio 1 RPE:8 PRP) | RPE organization or rod formation in dual cell aggregates ([2]; one month of culture)
C[C@@H](N)[C@H]1CC[C@H](C(=O)Nc2ccncc2)CC1 [Condition Y-27632] | qualitatively more efficient | – | –
CCCCC[C@H](O)/C=C/[C@H]1[C@H](O)CC(=O)[C@@H]1C/C=C\CCCC(=O)O [PGE2, Prostaglandin E2] | – | Differences in PRP organization were apparent | did not show striking differences
